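Method: 48-hour compound exposure of cells in 96-well plates, five concentrations, linear interpolation of endpoints. Abbreviation: GI50, concentration required for 50% inhibition of growth.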 Active and inactive are the calls of the source. No stated cut-off is given here; in the data, active = GI50 up to about 1.1 µM and inactive = higher.
Experiments:
Test in all cases: inhibition of tumour cell growth, NCI panel, 48 h
HCC 2998 = system: HCC 2998
A549 = system: A549
RXF 393 = system: RXF 393
K562 = system: K562
LOX IMVI = system: LOX IMVI
M14 = system: M14
NCI-H23 = system: NCI-H23
SK-OV-3 = system: SK-OV-3
SNB-75 = system: SNB-75
EKVX = system: EKVX
CAKI-1 = system: CAKI-1
SF-295 = system: SF-295
RPMI-8226 = system: RPMI-8226
HCT-116 = system: HCT-116
OVCAR-3 = system: OVCAR-3
HOP-62 = system: HOP-62
IGROV-1 = system: IGROV-1
SN12C = system: SN12C
SNB-19 = system: SNB-19
MOLT-4 = system: MOLT-4

Measured: GI50

CN(C)C(=S)N/N=C(\C(=N/NC(=S)N(C)C)c1ccccn1)c1ccccn1
inactive: HCC 2998 7.55 µM | A549 6.55 µM | RXF 393 5.21 µM | K562 8.28 µM | LOX IMVI 11.8 µM | M14 11.4 µM | NCI-H23 12.3 µM | SK-OV-3 14.4 µM | SNB-75 12.2 µM | EKVX 12 µM | CAKI-1 14.8 µM | SF-295 11.6 µM | RPMI-8226 5.3 µM | HCT-116 5.78 µM | OVCAR-3 3.85 µM | HOP-62 10.9 µM | IGROV-1 8.41 µM | SN12C 5.41 µM | SNB-19 12.8 µM

CC#CC(O)(C(=O)OC1CCC2CCC1N2C)C1CCCC1 (configuration not stated)
inactive: MOLT-4 > 100 µM | HCC 2998 > 100 µM | A549 > 100 µM | RXF 393 > 100 µM | LOX IMVI > 100 µM | M14 > 100 µM | NCI-H23 > 100 µM | SK-OV-3 > 100 µM | SNB-75 > 100 µM | EKVX > 100 µM | CAKI-1 > 100 µM | SF-295 > 100 µM | RPMI-8226 > 100 µM | HCT-116 > 100 µM | OVCAR-3 > 100 µM | HOP-62 > 100 µM | IGROV-1 > 100 µM | SN12C > 100 µM | SNB-19 > 100 µM

CCOc1ccc(/N=N/S(=O)(=O)O)cc1
inactive: HCC 2998 > 100 µM | A549 > 100 µM | RXF 393 > 100 µM | K562 > 100 µM | LOX IMVI > 100 µM | M14 > 100 µM | NCI-H23 > 100 µM | SK-OV-3 > 100 µM | SNB-75 > 100 µM | EKVX > 100 µM | CAKI-1 > 100 µM | SF-295 > 100 µM | RPMI-8226 > 100 µM | HCT-116 > 100 µM | OVCAR-3 > 100 µM | HOP-62 > 100 µM | IGROV-1 > 100 µM | SN12C > 100 µM | SNB-19 > 100 µM

CC1(C)Cc2nnsc2C2=C1C(=O)CCS2
inactive: MOLT-4 > 100 µM | HCC 2998 > 100 µM | A549 > 100 µM | RXF 393 > 100 µM | K562 > 100 µM | LOX IMVI > 100 µM | M14 > 100 µM | NCI-H23 > 100 µM | SK-OV-3 > 100 µM | SNB-75 24 µM | EKVX > 100 µM | CAKI-1 > 100 µM | SF-295 > 100 µM | RPMI-8226 > 100 µM | OVCAR-3 > 100 µM | HOP-62 > 100 µM | IGROV-1 > 100 µM | SN12C > 100 µM | SNB-19 > 100 µM

O=C1c2ccccc2C(=O)C1C(c1ccc([N+](=O)[O-])cc1)C1C(=O)c2ccccc2C1=O
inactive: MOLT-4 36.9 µM | HCC 2998 > 100 µM | A549 > 100 µM | RXF 393 14.3 µM | K562 > 100 µM | LOX IMVI 18 µM | M14 55.7 µM | NCI-H23 34.9 µM | SK-OV-3 > 100 µM | SNB-75 38.6 µM | EKVX > 100 µM | CAKI-1 28.8 µM | SF-295 > 100 µM | RPMI-8226 54.5 µM | HCT-116 24.3 µM | OVCAR-3 18.5 µM | HOP-62 34.8 µM | SN12C 36.6 µM | SNB-19 > 100 µM

C[C@@]12C[C@@H](c3ccccc3O1)N1CCCSC1=N2
inactive: MOLT-4 > 100 µM | HCC 2998 > 100 µM | RXF 393 > 100 µM | K562 > 100 µM | LOX IMVI > 100 µM | M14 > 100 µM | NCI-H23 > 100 µM | SK-OV-3 > 100 µM | SNB-75 > 100 µM | EKVX > 100 µM | CAKI-1 > 100 µM | SF-295 > 100 µM | RPMI-8226 > 100 µM | HCT-116 > 100 µM | OVCAR-3 > 100 µM | HOP-62 > 100 µM | IGROV-1 > 100 µM | SN12C > 100 µM | SNB-19 > 100 µM

C1=C(c2ccccc2)CN(c2ccccc2)OC1
inactive: MOLT-4 74.5 µM | HCC 2998 > 100 µM | A549 85.9 µM | RXF 393 33.5 µM | K562 77.4 µM | LOX IMVI > 100 µM | M14 83.8 µM | NCI-H23 89.7 µM | SK-OV-3 > 100 µM | SNB-75 66.4 µM | EKVX 86.9 µM | CAKI-1 56.5 µM | RPMI-8226 44.8 µM | OVCAR-3 > 100 µM | HOP-62 > 100 µM | IGROV-1 > 100 µM | SN12C > 100 µM | SNB-19 > 100 µM

— ChEMBL document CHEMBL1201862, “PubChem BioAssay data set” (2004)
